From paper PMC11503492, “Activity-Based DNA-Encoded Library Screening for Selective Inhibitors of Eukaryotic Translation” (ACS Central Science, 2024) come the findings set out here.

The subject of test [1] is PCSK9[1:33]-GFP translation. In words: Wheat germ lysate (WG) IVTT microplate activity assay, PCSK9[1:33]-GFP template. Format: biochemical. As to conditions: for inhibition of PCSK9[1:33]-GFP translation (in words) / IC50: WG IVTT; for IC50: PCSK9[1:33]-GFP template, triplicate, ± standard deviation of the mean. An excerpt:
A commercially available wheat germ lysate (WG) IVTT system was employed to assay translation inhibition. Translation activity was detected via a GFP reporter, and the assay was miniaturized to picoliter-scale microfluidic droplets (Figure 1A,B). […] PCSK9 and RPL27 were truncated to the first 33 and 32 amino acids, respectively (PCSK9[1:33] and RPL27[1:32]). The sequences contain distinct PF846 stall sites and were both fused to a GFP reporter. The GFP reporter and a frameshift mutant of PCSK9[1:33] (PCSK9-FS[1:33]), which mutates the nascent chain sequence while maintaining a nearly identical mRNA sequence, were included as negative controls.[13] […] Sequence sensitivity was further confirmed by an N-terminal deletion series of PCSK9[1:33]-GFP; deletion of N-terminal residues increasingly ablated PCSK9[1:33]-GFP translation sensitivity to PF846 (Figure 1D). The WG IVTT assay was miniaturized using a previously described microfluidic circuit modified for longer incubation times (Figure S1)[27] using PF846 as a positive control compound, and assay statistical quality was calculated (Z′=0.7) (Figure 1E). To confirm detection of translation inhibition from library beads, hygromycin B, a nonselective aminoglycoside translation inhibitor, was coupled to beads displaying a photocleavable linker (PC-HygB). UV irradiation releases hygromycin from the bead, allowing it to interact with the WG IVTT assay in the droplet. PC-HygB bead photocleavage supernatant inhibited PCSK9[1:33]-GFP translation both in a microplate assay and in microfluidic droplets (Figure 1F,G, S2). Assay statistical quality using PC-HygB positive control beads was similarly calculated (Z′ = 0.75, Figure 1H). […]
436 Microplate IVTT Assays
437 Wheat germ lysate IVTT plate assays were prepared as 5 µL reactions. Wheat germ lysate
438 (3 µL) was added to test compound or vehicle control (1 µL) in a 384-well black microplate
439 and the reaction was incubated (10 min, RT). Template (1 µL) was added and reaction
440 progress was immediately monitored (λex = 480 nm, λem = 530 nm, 27 °C, 2 h). Rela-
441 tive activity was calculated using the slope of fluorescence increase over time (at 15–30
442 min post reaction initiation) for compound samples relative to that of the DMSO vehicle
443 control. […]

The test system of another test is HeLa-derived IVTT. Briefly: HeLa lysate IVTT microplate activity assay. Format: biochemical, human. Conditions: dose-response. An excerpt: 421 region sequences were matched to an alpha numeric DNA region identifier (11xx, 22xx,
422 13xx, 24xx, 15xx, 26xx, respectively), while allowing a 1-bp mutation per encoding region.
423 No insertions or deletions were tolerated.
424 match a known encoding region identifier at all six encoding positions (2) contained a
425 single point mutation in more than 4 of the DNA encoding regions (3) contained a UMI
427 presented in the library or positive control designs or (5) contained a minimum Phred
428 quality score less than 20. A sum of UMI counts for all remaining unique combinations
429 of encoding region identifiers was then determined using a UMI aggregation algorithm;
430 1 bp mutations were considered the same UMI. Encoding region identifiers were then
431 converted to library BB identifiers per the library design with an associated UMI count.
432 Any encoding region/ bead-specific barcode combinations with a UMI count below a
433 manually determined threshold (10) were discarded. The remaining ”valid beads” were […]
440 progress was immediately monitored (λex = 480 nm, λem = 530 nm, 27 °C, 2 h). […]
441 tive activity was calculated using the slope of fluorescence increase over time (at 15–30 […]
449 immediately monitored (λex = 480 nm, λem = 530 nm, 27 °C, 2 h). […]
450 culated using the slope of fluorescence increase over time (15–30 min post reaction initia- […]

As for `Cc1cccc2ccnc(N(C(=O)[C@H]3CCCN(C(=O)c4cccc5c(C#N)c[nH]c45)C3)[C@@H]3CCCNC3)c12` [Compound 8], in test [1], the “inhibition of PCSK9[1:33]-GFP translation (in words)” value is “moderately inhibited” and the half-inhibitory concentration (IC50) was found to be 1.3 ± 0.2 µM. Besides, in the test with HeLa-derived IVTT, the “activity in HeLa-derived (human) IVTT (in words)” value was “active”.

`Cc1cccc2ccnc(N(C(=O)C3CCN(C(=O)c4cccc5c(C#N)c[nH]c45)CC3)[C@@H]3CCCNC3)c12` [Compound 9]: in test [1], the “inhibition of PCSK9[1:33]-GFP translation (in words)” value was “similarly active on both templates” and it took 19.6 ± 0.2 µM to reach half-maximal inhibition (IC50). Besides, the “inhibition of translation of all reporters (in words)” value in test [1] (all IVTT reporters tested) is “universally and completely inhibited”. In the test on HeLa-derived IVTT, the “activity in HeLa-derived (human) IVTT (in words)” value was “active”.
